From patent publication EP3666770A1, “NOVEL HETEROCYCLIC COMPOUNDS AS CDK8/19 INHIBITORS” (Joint Stock Company "Biocad", priority 2017, dated 2019)

How the values were obtained:
[1] = Chemical stability in simulated gastric fluid (SGF); format: physicochemical; conditions: SGF without enzymes, pH=1,4; 10 µm; 2 hours at 37°C; substance amount in % after thermostatting
Protocol: (§1) Chemical stability of the compounds described herein was determined in simulated gastric fluid and human blood plasma.
SGF concentrate without enzymes, pH=1,4 (Sigma Ireland, cat#01651) was used as simulated gastric fluid. Initial candidate solution (10 mM in DMSO) was diluted with an SGF working solution to a concentration of […] (test solution). The test solution was incubated in a dry block thermostat for 2 hours at 37°C. HPLC with Agilent 1200 liquid chromatography system (Agilent, USA) was employed to determine peak areas of the compounds in test samples, said peak areas corresponding to the initial test time (prior to incubation) and the final test time (after incubation in a dry block thermostat for 2 hours at 37°C). Chromatographic analysis was performed in a gradient elution regime with a flow rate of 1 mL/min. Substance amount in % in a sample after thermostatting was determined.

[2] = Chemical stability in human blood plasma; format: in vitro ADME; conditions: pooled human blood plasma; 10 µM; 4 hours at 37°C; substance amount in % after thermostatting
Protocol: as §1
Determination of stability in human blood plasma was performed using pooled human blood plasma taken from ten healthy donors. The initial candidate solution (10 mM in DMSO) was diluted with pooled blood plasma to a concentration of […] (test solution). The test solution was incubated in a dry block thermostat for 4 hours at 37°C. HPLC with Agilent 1200 liquid chromatography system (Agilent, USA) was employed to determine peak areas of the compounds in test samples, said peak areas corresponding to the initial test time (prior to incubation) and the final test time (after incubation in a dry block thermostat for 4 hours at 37°C), proteins were preliminarily precipitated with acetonitrile. Chromatographic analysis was performed in a gradient elution regime with a flow rate of 1 mL/min. Substance amount in % in a sample after thermostatting was determined.

[3] = Enzyme stability in human liver microsomes; format: in vitro ADME; conditions: pH 7.4; 0,5 mg/mL pooled human liver microsomes; 10 µM compound; 37°C; pH=7,4
Protocol: Measuring of candidates' enzyme stability enabled estimation of the stability of the present compounds towards the action of enzymes in liver microsomes.
Enzyme degradation rate was measured by incubating the reaction mixture in a dry block thermostat at 37°C, said reaction mixture comprising 0,5 mg/mL of pooled human liver microsomes (XenoTech, USA, cat#H2620), 10 µM compound, 2 mM β-nicotinamide adenine dinucleotide (Carbosynth, UK, cat#NN10871) and 4 mM magnesium chloride in 0,1 M sodium-phosphate buffer, pH=7,4. The reaction was quenched with acetonitrile (100 µL of acetonitrile / 100 µL of the reaction mixture). After quenching, the samples were centrifuged at 10000 rpm for 10 minutes. Supernatant fluid was tested by chromatographic technique using Agilent1200 (Agilent, USA). Chromatographic analysis was performed in a gradient elution regime with a flow rate of 1 mL/min. A graph of the logarithm of substance's peak area as a function of time was made. The dependent factor of the line corresponded to the elimination rate constant K based on which the drug's half-life t1/2 and degradation rate CLint were calculated: Elimination rate constant (k) = (−gradient) [formula] [formula] V(μL/mg) = (volume of incubation(μL))/(protein in the incubation(mg)) [formula] [formula]

[4] = Permeability through Caco-2 cell monolayer; format: in vitro ADME; conditions: human, Caco-2; for Papp A→B at 2 h, 10 µM: A->B transfer, pH 6.5 -> pH 7.4, 2 hours at 37 °C; for efflux ratio at 2 h, 10 µM: efflux = Papp B-A / Papp A-B
Protocol: Estimation of permeability through Caco-2 cell monolayer enables assessment of the ability of the substances to penetrate through biological membranes by means of both active and passive transport.
Intestinal epithelial cells Caco-2 were grown on filter inserts (pore size 0.4 µm, BD Falcon with High Density) for 21 days; monolayer integrity was then checked using Lucifer Yellow (Sigma-Aldrich, USA) according to the standard protocol. In A->B transfer ("intestinal lumen" - "blood stream" transfer), solutions of the test substances in buffer, pH 6.5 (HBSS, 10 mM HEPES, 15 mM glucose) at a concentration of 10 µM were added to the upper chamber; whereas the lower chamber was filled with buffer, pH 7.4 (HBSS, 10 mM HEPES, 15 mM Glucose, 1% BSA). In B->A transfer ("blood stream" - "intestinal lumen" transfer), the upper chamber was filled with buffer, pH 6.5, whereas the solutions of the test substances in buffer, pH 7.4, at a concentration of 10 µM were added to the lower chamber. A highly permeable substance propranolol was used as a control.
After 2 hours incubation at 37 ° C under an atmosphere containing 5% CO2, the amounts of the test substances in the upper and lower chambers were measured by HPLC using an Agilent1200 HPLC system (Agilent, USA), proteins were preliminarily precipitated with acetonitrile. Chromatographic analysis was performed in a gradient elution regime with a flow rate of 1 mL/min. The peak areas corresponding to the compounds were detected on chromatograms.
The value was calculated using the formula: efflux = Papp B−A /Papp A−B , [formula] where • Papp A-E - the value of permeability direct analysis A→ B; • Papp B-A - the value of the permeability of the reverse analysis B→ A.

MV4-11 = experiment: Cell-based antiproliferative test (AlamarBlue), MV4-11; conditions: Homo sapiens, MV4-11, 120 h, 120 h incubation; average values of several tests; read-out: MV-4-11 IC50, mkM
Protocol: Antiproliferative activity of CDK8 inhibitors according to the present invention was measured in a cell-based test on continuous cell cultures MV4-11 (biphenotypic myelomonocytic leukemia, ATCC® CRL-9591™), KG-1 (acute myeloid leukemia, ATCC® CCL-246™), HL-60 (acute promyelocytic leukemia, ATCC® CCL-240™) using a vital stain AlamarBlue (ThermoFisher, #DAL1100). The cells were grown in RPMI-1640 (PanEco, #C330p) medium with addition of 10% FBS (Gibco, #16140-071); washed and resuspended in culture medium with 10% FBS (Gibco, #16140-071) in 96-well culture plates (Corning, #3599) with ≈ 10 ×10^3 cells in […] of medium per well. The compounds in question were dissolved in DMSO and diluted with a medium with 10% FBS (Gibco, #16140-071) to a final concentration ranging form 0 to 100 µM. […] of diluted compounds were then added to each well (final DMSO concentration was less than 1%) and incubated under 5% CO2 atmosphere at 37°C for 120 h. After incubating, 15 µL of AlamarBlue (ThermoFisher, #DAL1100) reagent was added per well, contents of plates were mixed in an orbital shaker (Biosan, Latvia) and further incubated for 3-5 h at 37°C under 5% CO2 atmosphere. Number of living cells was estimated using a microplate spectrophotometer (Tecan Infinite M200Pro, Switzerland) measuring fluorescent signal at the excitation wavelength (λEx) of 540 nm and emission wavelength (λEm) of 590 nm.
IC50 was calculated using Magellan 7.2 software (Tecan, Switzerland) approximating experimental points by four-parameter logistic model with the optimization by Levenberg-Marquardt (table 7, table 7).

[5] = General cytotoxicity test on HepG2 cells; format: cell-based; conditions: human, HepG2 cells; 72 h incubation; 200 to 0.78 µM; average values of several tests; read-out: Hep-G2 CC50, mkM
Protocol: Cell viability was assessed using the above method. Table 6. […] The results are presented as average values of activity obtained in several tests.

SMILES | Stability in SGF, % [1] | Stability in blood plasma, % [2] | microsomal CLint at 10 µM [3] | Papp A→B at 2 h, 10 µM [4] | efflux ratio at 2 h, 10 µM [4] | IC50 (MV4-11) | CC50 at 72 h [5]
CN(C)c1ccc(-c2cnc3[nH]cc(C(=O)c4cccnc4)c3c2)cc1O [CDK8-4-5] | 99.2% | 100% | 26.6 µL/min/mg | 87.6 ×10⁻⁶ cm/s | 0.12 | 0.62 µM | 7.7 µM
O=C(c1ccncc1)c1c[nH]c2ncc(-c3ccc(N4CCOCC4)c(O)c3)cc12 [CDK8-4-11, (5-(3-Hydroxy-4-morpholinophenyl)-1H-pyrrolo[2,3-b]pyridin-3-yl) (pyridin-4-yl) methanone] | 98.1% | 88.5% | 15 µL/min/mg | 13.9 ×10⁻⁶ cm/s | 1.54 | 1.33 µM | > 200 µM
O=C(c1ccccn1)c1c[nH]c2ncc(-c3ccc(N4CCOCC4)c(O)c3)cc12 [CDK8-4-3, (5-(3-Hydroxy-4-morpholinophenyl)-1H-pyrrolo[2,3-b]pyridin-3-yl) (pyridin-2-yl) methanone] | 100% | 100% | 22 µL/min/mg |  |  | 1.49 µM | > 200 µM
COc1cc(-c2cnc3[nH]cc(C(=O)c4cccnc4)c3c2)ccc1N(C)C [CDK8-4-25, (5-(4-(Dimethylamino)-3-methoxyphenyl)-1H-pyrrolo[2,3-b]pyridin-3-yl)(pyridin-3-yl)methanone] | 100% | 100% | 22.2 µL/min/mg |  |  | 0.05 µM | 4.7 µM
CN(C)c1ccc(-c2cnc3[nH]cc(C(=O)c4cccnc4)c3c2)c(C#N)c1 [CDK8-4-26, 5-(Dimethylamino)-2-(3-nicotinoyl-1H-pyrrolo[2,3-b]pyridin-5-yl)benzonitrile] | 100% | 100% | 17.6 µL/min/mg |  |  | 1.28 µM | > 100 µM
O=C(c1ccnc2ccc(-c3ccc(-c4cn[nH]c4)cc3)cc12)N1CCCCC1 [CDK8-5-4, (6-(4-(1H-Pyrazol-4-yl)phenyl)quinolin-4-yl) (piperidin-1-yl)methanone] | 99.9% | 100% | 37 µL/min/mg |  |  | 9.56 µM | 66.1 µM
COc1cc(-c2cnc3[nH]cc(C(=O)c4ccccn4)c3c2)ccc1N1CCOCC1 [CDK8-4-23, (5-(3-Methoxy-4-morpholinophenyl)-1H-pyrrolo[2,3-b]pyridin-3-yl) (pyridin-2-yl) methanone] | 100% | 87.4% | 12.8 µL/min/mg | 36.9 ×10⁻⁶ cm/s | 0.14 | 0.1 µM | > 100 µM
COc1ccc(-c2cnc3[nH]cc(C(=O)c4ccncc4)c3c2)cc1 [CDK8-4-33, (5-(4-Methoxyphenyl)-1H-pyrrolo[2,3-b]pyridin-3-yl) (pyridin-4-yl)methanone] | 100% | 100% | 21.2 µL/min/mg | 13.4 ×10⁻⁶ cm/s | 1.5 | 19.7 µM | > 100 µM
O=C(C1CN(c2cc(F)c3ncn(-c4ccc(-c5cn[nH]c5)cc4)c3c2)C1)N1CCOCC1 [CDK8-1-8, (1-(1-(4-(1H-Pyrazol-4-yl)phenyl)-4-fluoro-1H-benzo[d]imidazol-6-yl)azetidin-3-yl)(morpholino)methanone] | 100% | 97.8% | 23.4 µL/min/mg | 19.7 ×10⁻⁶ cm/s | 2.9 | 3.92 µM | > 200 µM
CN(C)c1ccc(-c2cnc3[nH]cc(C(=O)c4ccncc4)c3c2)cc1O [CDK8-4-9, (5-(4-(Dimethylamino)-3-hydroxyphenyl)-1H-pyrrolo.[2,3-b]pyridin-3-yl) (pyridin-4-yl)methanone] | 99.5% | 100% | 21.6 µL/min/mg |  |  | 2.1 µM | > 200 µM
